Test system: subjects with major depressive disorder (MDD) who were inadequate responders to citalopram
Test: QIDS-SR, Phase 2b add-on trial
Format: in vivo, human
From the text: The 30 item Inventory of Depressive Symptomatology (IDS) (Rush et al. 1986, 1996) and the 16 item Quick Inventory of Depressive Symptomatology (QIDS) (Rush et al. 2003) are designed to assess the severity of depressive symptoms. Both the IDS and the […] are available in the clinician (IDS-C30 and QIDS-C16) and self-rated versions (IDS-SR30 and QIDS-SR16). The IDS and QIDS assess all the criterion symptom domains designated by the American Psychiatry Association Diagnostic and Statistical Manual of Mental Disorders—4th edition (DSM-IV) (APA 1994) to diagnose a major depressive episode. These assessments can be used to screen for depression, although they have been used predominantly as measures of symptom severity. The seven day period prior to assessment is the usual time frame for assessing symptom severity. The […] and QIDS-SR16 cover only the nine diagnostic symptom domains used to characterize a major depressive episode, without items to assess atypical, melancholic or their commonly associated symptoms. All 16 items on the QIDS are included within the IDS. The IDS-C30 and […] include the criterion symptoms, as well as commonly associated symptoms (e.g. anxiety, irritability) and items relevant to melancholic, or atypical symptom features. Both versions are sensitive to change, with medications, psychotherapy, or somatic treatments, making them useful for both research and clinical purposes. The psychometric properties of both the IDS and QIDS, have both been established in various study samples. See Rush A J, Trivedi M H, Ibrahim H M, et al., The 16-item Quick Inventory of Depressive Symptomatology (QIDS), Clinician Rating (QIDS-C), and Self-Report (QIDS-SR): a psychometric evaluation in patients with chronic major depression. Biol Psychiatry.; 54: 573-583 (2003).
In more detail, a multi-center double-blind, randomized, placebo-controlled, parallel group, flexible dose titration study of TC-5214 as adjunctive therapy in subjects with major depressive disorder (MDD) who were inadequate responders to citalopram was conducted in centers in the US and India. The study consisted of a screening period, baseline/washout period, open-label phase, double-blind phase, and a follow-up visit. Subject participation in the study could continue for up to 16 weeks of treatment. Following a washout period of up to 28 days for other antidepressants, subjects with MDD and a MADRS total score >/=28 and a Clinical Global Impression-Severity (CGI-S) score >/=4 were enrolled on Day 1 into an open-label citalopram-only phase of the study. This phase lasted 8 weeks, with citalopram (CIT) dose increased from a once-daily dose of 20 mg (Day 1 through Week 4) to 40 mg (Week 4 through Week 8). A total of 579 subjects entered the open-label citalopram phase. At Week 8, subjects who tolerated 40 mg CIT, but whose MADRS score was reduced <50% from baseline and no lower than 17, and CGI-S≧4, were considered inadequate responders. These subjects (n=270) were randomized in a double-blind fashion to receive either placebo or TC-5214-23 as add-on therapy to continued CIT. The double-blind phase of the study also lasted 8 weeks (Week 8 to Week 16). Study drug, TC-5214-23 or placebo, was started at 2 mg daily (1 mg twice per day [BID] dosing), added on to continuing CIT (40 mg PO qd). After 2 weeks of treatment, the dose of TC-5214 could be increased to 4 mg (2 mg BID) or continued unchanged, with up-titration based upon good tolerability and inadequate therapeutic response. After a further 2 weeks, the dose of TC-5214 could be increased again to 8 mg (4 mg BID) if judged appropriate by the investigator, based upon good tolerability and inadequate therapeutic response. At any time during the double-blind phase of the study, placebo or TC-5214-23 could be reduced to the previous dose level following the emergence of unacceptable adverse events (AEs). […] At this follow-up, any signs or symptoms of relapse were evaluated. […]

[1] = ITT N=265, week of double-blind treatment
[2] = ITT and PP, at every assessment week, result in words
[3] = ITT, Double Blind Week 18 (Follow-up)
[4] = ITT, Double Blind Week 18 LOCF (Follow-up), change from Week 16
[5] = PP, Double Blind Week 16 LOCF (change from Week 8)
[6] = PP, Double Blind Week 18 (Follow-up)
[7] = PP, Double Blind Week 18 LOCF (Follow-up), change from Week 16

CNC1(C)C2CCC(C2)C1(C)C (stereo in doubt) [TC-5214, (S)—N,2,3,3-tetramethylnorbornan-2-amine]
onset of separation from placebo, subject rated remission QIDS-SR≦5 (FIG. 2) [1]: ≤ 2 week
onset of separation from placebo, subject rated response QIDS-SR≧50% (FIG. 3) [1]: ≤ 1 week
QIDS-SR score change from baseline compared with placebo (ITT and PP populations, result in words): statistically significant decreases (improvements)
QIDS remission proportion compared with placebo [2]: higher proportion of subjects with remission
QIDS responders (reduction from baseline ≧50%) proportion compared with placebo [2]: higher proportion of responders
QIDS reduction from baseline ≧50%: Subjects with Response (number) (ITT, Double Blind Week 10): 29
QIDS reduction from baseline ≧50%: Subjects with Response (percentage) (ITT, Double Blind Week 10): 22%
QIDS reduction from baseline ≧50%: Subjects without Response (number) (ITT, Double Blind Week 10): 104
QIDS reduction from baseline ≧50%: Subjects without Response (percentage) (ITT, Double Blind Week 10): 78%
QIDS score ≦5: Subjects with Remission (number) (ITT, Double Blind Week 10): 19
QIDS score ≦5: Subjects with Remission (percentage) (ITT, Double Blind Week 10): (14%)
QIDS score ≦5: Subjects without Remission (number) (ITT, Double Blind Week 10): 114
QIDS score ≦5: Subjects without Remission (percentage) (ITT, Double Blind Week 10): (86%)
QIDS reduction from baseline ≧50%: Subjects with Response (number) (ITT, Double Blind Week 12): 44
QIDS reduction from baseline ≧50%: Subjects with Response (percentage) (ITT, Double Blind Week 12): 33%
QIDS reduction from baseline ≧50%: Subjects without Response (number) (ITT, Double Blind Week 12): 89
QIDS reduction from baseline ≧50%: Subjects without Response (percentage) (ITT, Double Blind Week 12): 67%
QIDS score ≦5: Subjects with Remission (number) (ITT, Double Blind Week 12): 25
QIDS score ≦5: Subjects with Remission (percentage) (ITT, Double Blind Week 12): (19%)
QIDS score ≦5: Subjects without Remission (number) (ITT, Double Blind Week 12): 108
QIDS score ≦5: Subjects without Remission (percentage) (ITT, Double Blind Week 12): (81%)
QIDS reduction from baseline ≧50%: Subjects with Response (number) (ITT, Double Blind Week 14): 67
QIDS reduction from baseline ≧50%: Subjects with Response (percentage) (ITT, Double Blind Week 14): 50%
QIDS reduction from baseline ≧50%: Subjects without Response (number) (ITT, Double Blind Week 14): 66
QIDS reduction from baseline ≧50%: Subjects without Response (percentage) (ITT, Double Blind Week 14): 50%
QIDS score ≦5: Subjects with Remission (number) (ITT, Double Blind Week 14): 45
QIDS score ≦5: Subjects with Remission (percentage) (ITT, Double Blind Week 14): (34%)
QIDS score ≦5: Subjects without Remission (number) (ITT, Double Blind Week 14): 88
QIDS score ≦5: Subjects without Remission (percentage) (ITT, Double Blind Week 14): (66%)
QIDS reduction from baseline ≧50%: Subjects with Response (number) (ITT, Double Blind Week 16): 88
QIDS reduction from baseline ≧50%: Subjects with Response (percentage) (ITT, Double Blind Week 16): 66%
QIDS reduction from baseline ≧50%: Subjects without Response (number) (ITT, Double Blind Week 16): 45
QIDS reduction from baseline ≧50%: Subjects without Response (percentage) (ITT, Double Blind Week 16): 34%
QIDS score ≦5: Subjects with Remission (number) (ITT, Double Blind Week 16): 60
QIDS score ≦5: Subjects with Remission (percentage) (ITT, Double Blind Week 16): (45%)
QIDS score ≦5: Subjects without Remission (number) (ITT, Double Blind Week 16): 73
QIDS score ≦5: Subjects without Remission (percentage) (ITT, Double Blind Week 16): (55%)
QIDS-SR Mean Difference between TC-5214 and Placebo (ITT, Double Blind Week 16 LOCF (change from Week 8)): 3.79
QIDS reduction from baseline ≧50%: Subjects with Response (number) [3]: 92
QIDS reduction from baseline ≧50%: Subjects with Response (percentage) [3]: 69%
QIDS reduction from baseline ≧50%: Subjects without Response (number) [3]: 41
QIDS reduction from baseline ≧50%: Subjects without Response (percentage) [3]: 31%
QIDS score ≦5: Subjects with Remission (number) [3]: 75
QIDS score ≦5: Subjects with Remission (percentage) [3]: (56%)
QIDS score ≦5: Subjects without Remission (number) [3]: 58
QIDS score ≦5: Subjects without Remission (percentage) [3]: (44%)
QIDS-SR Adjusted Mean change [4]: −0.52
QIDS-SR Mean Difference between TC-5214 and Placebo [4]: 0.58
QIDS-SR Difference vs Placebo + CIT (ITT, Week 8 to Week 16 LOCF): −3.76
QIDS-SR Adj. Mean change (ITT, change from Week 8 (double-blind baseline) to Week 16 LOCF, add-on to citalopram): −8.07
QIDS-SR score change at Week 18 compared with placebo (PP population, Week 18, result in words): statistically significant decrease
QIDS reduction from baseline ≧50%: Subjects with Response (number) (PP, Double Blind Week 10): 25
QIDS reduction from baseline ≧50%: Subjects with Response (percentage) (PP, Double Blind Week 10): 22%
QIDS reduction from baseline ≧50%: Subjects without Response (number) (PP, Double Blind Week 10): 88
QIDS reduction from baseline ≧50%: Subjects without Response (percentage) (PP, Double Blind Week 10): 78%
QIDS score ≦5: Subjects with Remission (number) (PP, Double Blind Week 10): 17
QIDS score ≦5: Subjects with Remission (percentage) (PP, Double Blind Week 10): 15%
QIDS score ≦5: Subjects without Remission (number) (PP, Double Blind Week 10): 96
QIDS score ≦5: Subjects without Remission (percentage) (PP, Double Blind Week 10): 85%
QIDS reduction from baseline ≧50%: Subjects with Response (number) (PP, Double Blind Week 12): 40
QIDS reduction from baseline ≧50%: Subjects with Response (percentage) (PP, Double Blind Week 12): 35%
QIDS reduction from baseline ≧50%: Subjects without Response (number) (PP, Double Blind Week 12): 73
QIDS reduction from baseline ≧50%: Subjects without Response (percentage) (PP, Double Blind Week 12): 65%
QIDS score ≦5: Subjects with Remission (number) (PP, Double Blind Week 12): 23
QIDS score ≦5: Subjects with Remission (percentage) (PP, Double Blind Week 12): 20%
QIDS score ≦5: Subjects without Remission (number) (PP, Double Blind Week 12): 90
QIDS score ≦5: Subjects without Remission (percentage) (PP, Double Blind Week 12): 80%
QIDS reduction from baseline ≧50%: Subjects with Response (number) (PP, Double Blind Week 14): 59
QIDS reduction from baseline ≧50%: Subjects with Response (percentage) (PP, Double Blind Week 14): 52%
QIDS reduction from baseline ≧50%: Subjects without Response (number) (PP, Double Blind Week 14): 54
QIDS reduction from baseline ≧50%: Subjects without Response (percentage) (PP, Double Blind Week 14): 48%
QIDS score ≦5: Subjects with Remission (number) (PP, Double Blind Week 14): 39
QIDS score ≦5: Subjects with Remission (percentage) (PP, Double Blind Week 14): 35%
QIDS score ≦5: Subjects without Remission (number) (PP, Double Blind Week 14): 74
QIDS score ≦5: Subjects without Remission (percentage) (PP, Double Blind Week 14): 65%
QIDS reduction from baseline ≧50%: Subjects with Response (number) (PP, Double Blind Week 16): 80
QIDS reduction from baseline ≧50%: Subjects with Response (percentage) (PP, Double Blind Week 16): 71%
QIDS reduction from baseline ≧50%: Subjects without Response (number) (PP, Double Blind Week 16): 33
QIDS reduction from baseline ≧50%: Subjects without Response (percentage) (PP, Double Blind Week 16): 29%
QIDS score ≦5: Subjects with Remission (number) (PP, Double Blind Week 16): 55
QIDS score ≦5: Subjects with Remission (percentage) (PP, Double Blind Week 16): 49%
QIDS score ≦5: Subjects without Remission (number) (PP, Double Blind Week 16): 58
QIDS score ≦5: Subjects without Remission (percentage) (PP, Double Blind Week 16): 51%
QIDS-SR Adjusted Mean change [5]: −8.60
QIDS-SR Mean Difference between TC-5214 and Placebo [5]: 3.90
QIDS reduction from baseline ≧50%: Subjects with Response (number) [6]: 84
QIDS reduction from baseline ≧50%: Subjects with Response (percentage) [6]: 74%
QIDS reduction from baseline ≧50%: Subjects without Response (number) [6]: 29
QIDS reduction from baseline ≧50%: Subjects without Response (percentage) [6]: 26%
QIDS score ≦5: Subjects with Remission (number) [6]: 69
QIDS score ≦5: Subjects with Remission (percentage) [6]: 61%
QIDS score ≦5: Subjects without Remission (number) [6]: 44
QIDS score ≦5: Subjects without Remission (percentage) [6]: 39%
QIDS-SR Adjusted Mean change [7]: −0.65
QIDS-SR Mean Difference between TC-5214 and Placebo [7]: 0.84
